The test system of this assay is Aedes aegypti mosquitoes. Description: in vitro Gupta box landing assay (insect repellency). Particulars: 1% in IPA, 25 μl on Baudruche membrane over bovine blood at 37° C.; about 250 4-day-old female mosquitoes; probing recorded at 2 minute intervals over 20 minutes; mean of three replicates; compared with prior-art DHN materials. The method, then: The product of Example 1 is evaluated for insect repellency in a comparison test with DHN stereoisomers prepared according to prior-art methods, and against the major commercial insect repellent composition, DEET (N,N-diethyl-m-toluamide). As a control, neat iso-propanol (IPA) is employed as well. Repellency is determined against Aedes aegypti mosqutioes in the in vitro Gupta box landing assay. In this method a chamber contains 5 wells, each covered by a Baudruche (animal intestine) membrane. Each well is filled with bovine blood, containing sodium citrate (to prevent clotting) and ATP (72 mg ATP disodium salt per 26 ml of blood), and heated to 37° C. A volume of 25 μl of isopropyl alcohol (IPA) containing one test specimen or control is applied to each membrane. The concentrations are all 1% in IPA except where otherwise indicated. Controls are either neat IPA, an untreated membrane surface, or a membrane surface treated with a 1% solution of DEET. After 5 min, approximately 250 4-day-old female Aedes aegypti mosquitoes are introduced into the chamber. The number of mosquitoes probing the membranes for each treatment is recorded at 2 minute intervals over 20 minutes. Each datum represents the mean of three replicate experiments.

The text below walks through data of US20050137252A1, “Production of dihydronepetalactone” (priority 2003, published 2005).

Take `CC1COC(=O)C2C(C)CCC12` (single isomer, unassigned) [DHN Structure F]: the “repellent efficacy (mean number of landings over elapsed time, FIG. 3)” value is “compared well in repellent efficacy”.
